According to patent publication US20160238617A1, “[…] AND METHODS […] TO INNER EAR DISORDERS” (THE UNIVERSITY OF CONNECTICUT, priority 2015, published 2016):

Assays:
[1] = tested on: prestin; assay: serum prestin level in cisplatin-treated rats; format: in vivo; details: 72 hours after treatment, compared to controls
From the text: Rats are more vulnerable to ototoxic damage than mice.

[2] = tested on: prestin; assay: serum prestin concentration in mice treated with cisplatin; format: in vivo; details: same time course up to two weeks after exposure
Method: Although the hearing threshold measured by ABR was unaffected, prestin levels continued to change after exposure to cisplatin.
The ototoxin drug cisplatin (a commonly used chemotherapeutic agent) was administered and then functional assessment of hearing and measurement of prestin were carried out at several intervals up to two weeks after exposure. Hearing was assessed using a standard testing protocol called click-evoked auditory brainstem response (ABR) (FIG. 13).

SMILES: N.N.[Cl][Pt][Cl] [cisplatin]
- serum prestin level [1]: elevated
- serum concentrations of prestin [2]: increasing
